{"source": "ChEMBL document CHEMBL1201862", "about": "“PubChem BioAssay data set” (2004)", "key": {"A549": {"system": "A549", "experiment": "viability loss in A549 cells – cell-based, plate reader, cherry-pick samples, cytotoxicity control, dose response (AID 687028)", "assay_type": "functional", "conditions": "Homo sapiens"}, "[1]": {"biological_target": "G-protein coupled receptor 55 (Homo sapiens, UniProt Q9Y2T6)", "sequence (Q9Y2T6 whole entry)": "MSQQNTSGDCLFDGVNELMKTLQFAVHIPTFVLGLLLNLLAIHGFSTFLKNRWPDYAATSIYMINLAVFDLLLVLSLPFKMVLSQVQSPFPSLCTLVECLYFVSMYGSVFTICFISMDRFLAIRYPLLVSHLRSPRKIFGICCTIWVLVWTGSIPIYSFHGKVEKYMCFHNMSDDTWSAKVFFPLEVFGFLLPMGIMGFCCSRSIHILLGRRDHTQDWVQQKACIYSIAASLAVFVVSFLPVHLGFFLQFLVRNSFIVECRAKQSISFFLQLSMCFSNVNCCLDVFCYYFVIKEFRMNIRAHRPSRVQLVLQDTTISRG", "experiment": "inhibition of LPI-stimulated GPR55 beta-arrestin translocation – imaging, U2OS, beta-arrestin-GFP, LPI agonist, primary screen (AID 2013);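 also: antagonist potency measured as reduced agonist-driven arrestin aggregation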", "assay_type": "functional"}, "[2]": {"experiment": "viability loss in HEK293T cells – cell-based, cherry-picks, cytotoxicity control for HIV Vif inhibitor project, dose response (AID 652208)", "assay_type": "functional"}, "[3]": {"system": "Streptococcus sp. 'group A'", "experiment": "Streptococcus pyogenes SK(-)GAS viability under kanamycin – luminescence, BacTiterGlo, confirmation, counter-screen for streptokinase expression inhibitor project, dose response (AID 1900)", "assay_type": "functional, organism-based"}, "Streptococcus": {"system": "Streptococcus", "experiment": "GAS UMAA2166 growth inhibition – luminescence, BacTiterGlo, counter-screen for streptokinase expression inhibitor project, dose response (AID 1915)", "assay_type": "functional, organism-based"}, "HEK293": {"system": "HEK293", "experiment": "EBV LMP1 TES2 canonical NF-kB signalling blockers – cell-based, HEK293, luciferase, cherry-pick, dose response (AID 588343)", "assay_type": "functional", "conditions": "Homo sapiens"}, "[4]": {"biological_target": "Latent membrane protein 1 (Human herpesvirus 4 (strain B95-8), UniProt P03230)", "sequence (P03230 whole entry)": "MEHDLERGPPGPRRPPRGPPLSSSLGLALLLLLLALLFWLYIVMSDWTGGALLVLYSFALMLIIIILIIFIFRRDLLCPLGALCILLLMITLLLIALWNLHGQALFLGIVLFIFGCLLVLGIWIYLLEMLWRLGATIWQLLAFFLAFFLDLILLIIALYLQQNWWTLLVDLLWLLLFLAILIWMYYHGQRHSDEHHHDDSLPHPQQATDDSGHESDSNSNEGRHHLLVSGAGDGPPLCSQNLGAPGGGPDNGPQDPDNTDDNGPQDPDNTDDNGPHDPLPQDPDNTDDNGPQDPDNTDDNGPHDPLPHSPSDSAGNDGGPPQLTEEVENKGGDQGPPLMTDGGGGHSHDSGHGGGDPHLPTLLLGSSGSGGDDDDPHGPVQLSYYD", "experiment": "LMP1 TES1 pathway selectivity over dsRED control – imaging, HEK293T, dual-color eGFP/dsRED, cherry-picks, selectivity assay for LMP1 NF-kB inhibitor project, dose response (AID 588398)", "assay_type": "functional, cell-based"}, "cells": {"experiment": "cells", "assay_type": "functional, cell-based"}, "[5]": {"biological_target": "T1, Nuclear receptor subfamily 0 group B member 1 (Homo sapiens, UniProt P51843)", "T1 sequence (P51843 whole entry)": "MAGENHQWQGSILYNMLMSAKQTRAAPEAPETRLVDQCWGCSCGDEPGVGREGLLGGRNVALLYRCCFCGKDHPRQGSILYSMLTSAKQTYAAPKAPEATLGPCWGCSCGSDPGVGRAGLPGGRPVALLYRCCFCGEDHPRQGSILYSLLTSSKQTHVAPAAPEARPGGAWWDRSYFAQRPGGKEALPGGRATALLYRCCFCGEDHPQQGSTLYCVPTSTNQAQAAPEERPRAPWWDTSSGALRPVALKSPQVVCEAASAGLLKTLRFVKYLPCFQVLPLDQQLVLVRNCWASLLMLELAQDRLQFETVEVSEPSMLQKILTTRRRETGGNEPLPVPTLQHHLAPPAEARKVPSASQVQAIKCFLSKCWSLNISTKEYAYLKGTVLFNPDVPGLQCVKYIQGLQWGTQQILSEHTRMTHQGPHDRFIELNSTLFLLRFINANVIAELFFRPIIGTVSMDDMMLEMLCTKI", "assay_type": "functional, cell-based"}, "[6]": {"experiment": "A549 cell cytotoxicity, dose response, cytotoxicity control, plate reader, cherry-pick, antagonist series (AID 743412)", "assay_type": "functional, cell-based"}, "[7]": {"experiment": "toxicity toward HepG2 liver cells – cell-based, plate reader, cherry-pick, antagonist series, cytotoxicity control, dose response (AID 743416)", "assay_type": "functional"}, "[8]": {"experiment": "blockers of bursicon-stimulated LGR2 cAMP reporter – cell-based, HEK293, CRE-luciferase reporter, cherry pick, set 2, dose response (AID 743343);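 also: transfected cells were stimulated with diluted bursicon conditioned medium after compound addition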", "assay_type": "functional"}, "[9]": {"experiment": "blockade of melanocortin 4 receptor signaling – cell-based, plate reader, cherry pick, counter-screen for LGR2 antagonist project, dose response (AID 743444);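 also: transfected HEK 293 cells stimulated with alpha-MSH peptide; potency of inhibitors of the alpha-MSH evoked signal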", "assay_type": "functional"}, "[10]": {"experiment": "viability loss in HEK293 cells – cell-based, plate reader, cherry-picked samples, cytotoxicity control, dose response (AID 743446)", "assay_type": "functional"}, "INS1": {"system": "INS1", "experiment": "INS-1E survival protection against cytokine death – cell-based, luminescence, retest, dose response (AID 449756);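 also: cell death triggered by IL-1 beta plus TNF-alpha plus IFN-gamma mixture; protective hits raise ATP signal compared with cytokine alone wells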", "assay_type": "functional", "conditions": "Rattus norvegicus"}, "[11]": {"experiment": "reduction of Shn3 3'UTR-driven luciferase in osteoblasts – cell-based, Clone20 osteoblasts, firefly luciferase, cherry-picked, dose response (AID 624132)", "assay_type": "functional"}, "[12]": {"experiment": "loss of viability in HepG2 cells – cell-based, CellTiter-Glo, cherry-picked, cytotoxicity control for Shn3 inhibitor project, dose response (AID 624134)", "assay_type": "functional"}, "[13]": {"experiment": "non-specific 3'UTR reporter inhibition in Clone20-Shn3RL – cell-based, Renilla luciferase, cherry-picked, counter-screen for Shn3 inhibitor project, dose response (AID 624133)", "assay_type": "functional"}, "Protein Wnt-3a": {"biological_target": "Protein Wnt-3a (Mus musculus, UniProt P27467)", "sequence (P27467 whole entry)": "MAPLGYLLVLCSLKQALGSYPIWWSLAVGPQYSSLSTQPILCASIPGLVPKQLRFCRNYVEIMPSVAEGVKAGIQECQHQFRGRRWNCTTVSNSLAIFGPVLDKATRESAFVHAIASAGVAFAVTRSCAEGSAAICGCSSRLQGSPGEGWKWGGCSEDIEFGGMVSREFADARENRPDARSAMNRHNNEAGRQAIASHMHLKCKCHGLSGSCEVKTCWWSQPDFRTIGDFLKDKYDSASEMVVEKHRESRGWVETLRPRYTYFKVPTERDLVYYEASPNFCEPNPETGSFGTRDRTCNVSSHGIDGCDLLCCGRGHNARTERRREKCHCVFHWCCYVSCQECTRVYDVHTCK", "experiment": "antagonism of Wnt3a pathway luciferase reporter – Wnt-LIGHT cells, luminescence, selectivity assay for Gli-SUFU antagonist project, dose response (AID 651570);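 also: Wnt-LIGHT reporter cells stimulated with conditioned medium from Wnt3a-producing cells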", "assay_type": "functional", "conditions": "read-out: IC50_Mean"}, "[14]": {"biological_target": "COUP transcription factor 2 (Homo sapiens, UniProt P24468)", "sequence (P24468 whole entry)": "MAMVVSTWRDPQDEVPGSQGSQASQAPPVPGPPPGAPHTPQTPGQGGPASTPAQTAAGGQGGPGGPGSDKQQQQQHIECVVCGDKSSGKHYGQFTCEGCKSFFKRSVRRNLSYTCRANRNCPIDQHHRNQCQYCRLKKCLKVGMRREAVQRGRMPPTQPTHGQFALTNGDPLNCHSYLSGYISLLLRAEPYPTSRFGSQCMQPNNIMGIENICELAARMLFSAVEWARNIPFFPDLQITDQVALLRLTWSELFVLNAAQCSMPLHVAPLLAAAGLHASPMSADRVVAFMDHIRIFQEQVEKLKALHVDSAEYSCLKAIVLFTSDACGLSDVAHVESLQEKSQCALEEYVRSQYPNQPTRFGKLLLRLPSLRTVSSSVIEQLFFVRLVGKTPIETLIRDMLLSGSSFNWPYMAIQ", "experiment": "Luminescence-based cell-based high throughput dose response assay to identify inhibitors of COUP-TFII (NR2F2).", "assay_type": "functional"}, "[15]": {"experiment": "inhibition of ARNT PAS-B/TACC3 complex formation – biochemical, AlphaScreen, cherry-picked samples, confirmation (AID 651703);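 also: His-tagged ARNT PAS-B domain paired with GST-TACC3 E629A dimer coactivator fragment; potency of inhibitors that break up the complex and lower AlphaScreen signal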", "assay_type": "functional, Homo sapiens"}, "Caspase-6": {"biological_target": "T2, Caspase-6 (Homo sapiens, UniProt P55212)", "T2 sequence (P55212 whole entry)": "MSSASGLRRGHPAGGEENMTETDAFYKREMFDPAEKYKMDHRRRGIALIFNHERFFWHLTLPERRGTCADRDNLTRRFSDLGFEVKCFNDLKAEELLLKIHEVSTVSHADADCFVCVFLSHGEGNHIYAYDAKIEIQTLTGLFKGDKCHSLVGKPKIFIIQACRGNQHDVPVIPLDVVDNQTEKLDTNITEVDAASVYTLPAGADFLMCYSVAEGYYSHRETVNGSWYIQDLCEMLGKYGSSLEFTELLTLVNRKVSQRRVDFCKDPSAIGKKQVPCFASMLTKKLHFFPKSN", "experiment": "inhibition of CASP6 peptide cleavage – biochemical, VEID-R110 fluorescence, cherry-pick, dose response (AID 720632)"}, "[16]": {"experiment": "intracellular Trypanosoma cruzi inhibitors in host cells – cell-based, plate reader, cherry-pick samples, set 3, dose response (AID 651818);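 also: compounds incubated with infected cells for about four days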", "assay_type": "functional"}, "[17]": {"experiment": "cytotoxicity in HEK293 background cells – cell-based, dry powder, set 2, counter-screen for EBV LMP1 inhibitor project, dose response (AID 624374)", "assay_type": "functional"}, "Beta-galactosidase": {"biological_target": "Beta-galactosidase (Escherichia coli, UniProt Q8VNN2)", "sequence (Q8VNN2 whole entry)": "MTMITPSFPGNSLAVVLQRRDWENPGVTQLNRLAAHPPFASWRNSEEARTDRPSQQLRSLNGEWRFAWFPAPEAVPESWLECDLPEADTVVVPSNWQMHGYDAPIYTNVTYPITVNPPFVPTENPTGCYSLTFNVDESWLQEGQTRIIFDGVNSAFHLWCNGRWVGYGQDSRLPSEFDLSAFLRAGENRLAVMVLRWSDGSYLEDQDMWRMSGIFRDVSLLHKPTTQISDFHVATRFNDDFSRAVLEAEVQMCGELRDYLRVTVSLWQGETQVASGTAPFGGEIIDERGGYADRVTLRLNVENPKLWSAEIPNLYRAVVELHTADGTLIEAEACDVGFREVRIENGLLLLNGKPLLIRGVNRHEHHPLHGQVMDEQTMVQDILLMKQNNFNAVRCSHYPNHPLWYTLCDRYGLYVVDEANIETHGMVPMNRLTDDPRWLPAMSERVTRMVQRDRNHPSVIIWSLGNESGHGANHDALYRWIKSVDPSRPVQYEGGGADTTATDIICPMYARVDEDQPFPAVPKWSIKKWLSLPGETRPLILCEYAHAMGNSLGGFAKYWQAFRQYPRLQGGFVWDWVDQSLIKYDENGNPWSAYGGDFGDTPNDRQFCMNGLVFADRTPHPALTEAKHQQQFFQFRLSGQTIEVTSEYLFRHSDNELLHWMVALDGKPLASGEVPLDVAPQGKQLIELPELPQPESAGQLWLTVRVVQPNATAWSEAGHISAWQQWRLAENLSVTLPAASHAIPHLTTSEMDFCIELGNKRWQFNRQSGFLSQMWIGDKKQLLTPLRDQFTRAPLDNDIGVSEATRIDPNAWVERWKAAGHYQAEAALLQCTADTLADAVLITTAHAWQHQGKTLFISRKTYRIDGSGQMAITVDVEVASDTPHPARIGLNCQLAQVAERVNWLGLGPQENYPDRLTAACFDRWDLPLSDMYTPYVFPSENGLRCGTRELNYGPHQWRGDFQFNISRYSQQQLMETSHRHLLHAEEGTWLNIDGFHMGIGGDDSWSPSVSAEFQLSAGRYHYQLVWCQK", "experiment": "Dose response counterscreen for EBI2 assay utilizing the enzyme, b-galactosidase.", "assay_type": "functional"}, "[18]": {"biological_target": "T3, RNA-binding protein pos-1 (Caenorhabditis elegans, UniProt G5EF15)", "T3 sequence (G5EF15 whole entry)": "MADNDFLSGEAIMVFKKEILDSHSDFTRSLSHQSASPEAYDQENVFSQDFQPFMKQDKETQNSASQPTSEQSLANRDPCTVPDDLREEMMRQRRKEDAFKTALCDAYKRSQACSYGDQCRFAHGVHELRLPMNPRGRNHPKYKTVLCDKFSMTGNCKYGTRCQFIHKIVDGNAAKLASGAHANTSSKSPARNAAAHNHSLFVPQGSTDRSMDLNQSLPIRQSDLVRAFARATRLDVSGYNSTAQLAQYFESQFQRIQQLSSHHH", "experiment": "disruptors of C. elegans POS-1 RNA interaction – biochemical, fluorescence polarization, dose response (AID 1964);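 also: purified POS-1 fused to maltose binding protein made in E. coli; potency of compounds blocking POS-1 binding to fluorescent RNA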"}, "[19]": {"biological_target": "T4, Zinc finger protein mex-5 (Caenorhabditis elegans, UniProt Q9XUB2)", "T4 sequence (Q9XUB2 whole entry)": "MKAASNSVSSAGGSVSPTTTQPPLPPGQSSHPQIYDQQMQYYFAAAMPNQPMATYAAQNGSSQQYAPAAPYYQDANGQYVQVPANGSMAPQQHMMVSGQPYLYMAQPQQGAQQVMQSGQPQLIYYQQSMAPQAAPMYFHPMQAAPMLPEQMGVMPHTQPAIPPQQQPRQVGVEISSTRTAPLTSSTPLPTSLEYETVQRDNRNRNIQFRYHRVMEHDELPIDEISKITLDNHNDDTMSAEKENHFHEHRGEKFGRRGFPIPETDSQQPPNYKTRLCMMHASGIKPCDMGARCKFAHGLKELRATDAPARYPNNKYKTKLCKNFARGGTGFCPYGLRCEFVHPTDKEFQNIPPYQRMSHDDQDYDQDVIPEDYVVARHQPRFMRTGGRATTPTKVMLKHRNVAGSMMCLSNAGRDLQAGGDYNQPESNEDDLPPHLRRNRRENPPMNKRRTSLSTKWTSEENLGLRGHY", "experiment": "potency of MEX-5 RNA-binding blockers – biochemical, C. elegans, fluorescence polarization, dose response (AID 1960)"}, "[20]": {"biological_target": "T5, Sentrin-specific protease 1 (Homo sapiens, UniProt Q9P0U3)", "T5 sequence (Q9P0U3 whole entry, the tested form may be a part)": "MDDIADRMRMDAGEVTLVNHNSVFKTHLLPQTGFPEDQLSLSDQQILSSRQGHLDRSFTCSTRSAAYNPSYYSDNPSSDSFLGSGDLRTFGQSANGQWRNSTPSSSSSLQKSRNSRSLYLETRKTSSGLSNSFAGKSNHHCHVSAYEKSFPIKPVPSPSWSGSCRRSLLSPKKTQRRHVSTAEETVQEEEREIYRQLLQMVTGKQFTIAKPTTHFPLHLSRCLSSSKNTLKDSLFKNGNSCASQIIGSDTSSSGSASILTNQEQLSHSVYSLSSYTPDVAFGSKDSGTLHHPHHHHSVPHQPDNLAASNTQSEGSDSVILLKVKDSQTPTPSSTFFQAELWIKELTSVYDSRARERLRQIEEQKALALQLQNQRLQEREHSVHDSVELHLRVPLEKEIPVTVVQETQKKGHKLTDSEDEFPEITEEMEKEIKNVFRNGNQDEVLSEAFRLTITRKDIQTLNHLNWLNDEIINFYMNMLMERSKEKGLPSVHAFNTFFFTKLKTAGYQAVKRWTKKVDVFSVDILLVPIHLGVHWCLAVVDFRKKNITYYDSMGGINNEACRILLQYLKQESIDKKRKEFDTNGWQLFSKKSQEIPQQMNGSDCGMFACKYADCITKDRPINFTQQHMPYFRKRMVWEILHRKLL", "experiment": "SENP1 catalytic domain blockers, concentration series – biochemical, kinetic FRET, dose response (AID 651697)", "assay_type": "functional", "conditions": "read-out: IC50_Mean"}, "[21]": {"biological_target": "T5, Sentrin-specific protease 1", "experiment": "Dose response confirmation of small molecule inhibitors of the catalytic domain of the SUMO protease, SENP1 in a FRET assay.", "assay_type": "functional", "conditions": "read-out: IC50_Mean"}}, "note": "Calls of active or inactive are those of the source."}
{"smiles": "Cc1cccc(OCC(=O)NNC(=O)C2CCCCC2C(=O)O)c1", "note": "(centres undefined)", "values": [{"measurement": "AC50", "setting": "A549", "value": "26.4 µM (active)"}]}
{"smiles": "CCCN1C(=O)/C(=C\\C=C2\\N(CC)c3ccccc3C2(C)C)SC1=S", "values": [{"measurement": "IC50", "setting": "[1]", "value": "0.824 µM (active)"}, {"measurement": "AC50", "setting": "[2]", "value": "> 52 µM (inactive)"}]}
{"smiles": "COc1ccc(-c2cc3nc4n(c(=O)c3s2)CCC4)cc1", "values": [{"measurement": "EC50", "setting": "[3]", "value": "0.706 µM (active)"}, {"measurement": "EC50", "setting": "Streptococcus", "value": "2.48 µM (active)"}, {"measurement": "AC50", "setting": "HEK293", "value": "1.48 µM (active)"}, {"measurement": "AC50", "setting": "[4]", "value": "28 µM (active)"}, {"measurement": "IC50", "setting": "cells", "value": "> 67.5 µM (inactive)"}, {"measurement": "IC50", "setting": "[5]", "value": "> 0.278 µM (active)"}, {"measurement": "AC50", "setting": "[6]", "value": "> 52 µM (inactive)"}, {"measurement": "AC50", "setting": "[7]", "value": "> 52 µM (inactive)"}, {"measurement": "AC50", "setting": "[8]", "value": "2.53 µM (active)"}, {"measurement": "AC50", "setting": "[9]", "value": "2.65 µM (active)"}, {"measurement": "AC50", "setting": "[10]", "value": "36.4 µM (active)"}]}
{"smiles": "COc1ccc(CCNc2ncnc3c2oc2ccccc23)cc1OC", "values": [{"measurement": "AC50", "setting": "INS1", "value": "1.78 µM (active)"}, {"measurement": "AC50", "setting": "[11]", "value": "0.524 µM (active)"}, {"measurement": "AC50", "setting": "[12]", "value": "3.79 µM (active)"}, {"measurement": "AC50", "setting": "[13]", "value": "1.89 µM (active)"}, {"measurement": "IC50", "setting": "Protein Wnt-3a", "value": "1.07 µM (active)"}, {"measurement": "IC50", "setting": "[14]", "value": "5.03 µM (active)"}]}
{"smiles": "Cc1ccc2[nH]c3c(c2c1)CCCC3NCCO", "note": "(centres undefined)", "values": [{"measurement": "AC50", "setting": "[15]", "value": "135 µM (active)"}, {"measurement": "AC50", "setting": "Caspase-6", "value": "22.2 µM (active)"}]}
{"smiles": "COc1ccc(NC(=O)Nc2ccc3c(c2)CC(=O)N([C@H](C)CO)C[C@H](C)[C@H](CN(C)Cc2ccc(C(=O)Nc4ccccc4N)cc2)O3)cc1", "values": [{"measurement": "AC50", "setting": "[16]", "value": "4.17 µM (active)"}]}
{"smiles": "C[C@@H](NC(=O)C[C@H]1C[C@@H]2c3cc(NC(=O)c4cccnc4)ccc3O[C@@H]2[C@@H](CO)O1)c1ccccc1", "values": [{"measurement": "AbsAC35", "setting": "[17]", "value": 222.38, "unit": "µM"}]}
{"smiles": "O=C(c1ccc(-n2cccn2)cc1)N1CCN(c2ncccc2C(F)(F)F)CC1", "values": [{"measurement": "IC50", "setting": "Beta-galactosidase", "value": "> 80 µM (inactive)"}]}
{"smiles": "Cc1cccc(-c2c3c(=O)n(C)c(=O)n(C)c3c3cccnn23)c1", "values": [{"measurement": "EC50", "setting": "[18]", "value": "83.8 µM (active)"}, {"measurement": "EC50", "setting": "[19]", "value": "87.6 µM (active)"}, {"measurement": "IC50", "setting": "[20]", "value": "27 µM (inactive)"}, {"measurement": "IC50", "setting": "[21]", "value": "11.3 µM (active)"}]}
